Results taken from ChEMBL document CHEMBL5729737, “FGFR4 inhibitor, preparation method therefor, and applications thereof” (2023).

How the values were obtained:
[1] = molecular target: Fibroblast growth factor receptor 1 (Homo sapiens, UniProt P11362); test: Enzymologic Experiment of FGFR1: In this experiment, the inhibitory effect of the compounds on FGFR1 kinase activity was tested by a fluorescence resonance energy transfer (TR-FRET) method, and the half maximal inhibitory concentration (IC50) of the compounds on the FGFR1 kinase activity was determined. 1) 1˜5 μL of FGFR1 enzyme solution was added to a 384-well plate, and the final concentration of the enzyme was 0.1˜5 nM. 2) 1˜5 μL of diluted solution in gradient of the compound was added. 3) 1˜5 μL of a substrate mixture containing substrate polypeptide with a final concentration of 5˜50 nM and ATP with a final concentration of 10˜200 μM was added. 4) The mixture was incubated for 0.5˜3 hours at room temperature. 5) 10 μL of EDTA and a test solution comprising labeled antibody were added, and the plate was incubated for 1 hour at room temperature. 6) The fluorescence signal values of each plate were determined by a microplate reader at 665 nm.7) The inhibition rates were calculated according to the fluorescence signal values.
[2] = molecular target: Fibroblast growth factor receptor 4 (Homo sapiens, UniProt P22455); test: 5) 10 μL of EDTA and a test solution comprising labeled antibody were added, and the plate was incubated for 1 hour at room temperature. […] 7) The inhibition rates were calculated according to the fluorescence signal values.
Sequence of Fibroblast growth factor receptor 4 (P22455 whole entry): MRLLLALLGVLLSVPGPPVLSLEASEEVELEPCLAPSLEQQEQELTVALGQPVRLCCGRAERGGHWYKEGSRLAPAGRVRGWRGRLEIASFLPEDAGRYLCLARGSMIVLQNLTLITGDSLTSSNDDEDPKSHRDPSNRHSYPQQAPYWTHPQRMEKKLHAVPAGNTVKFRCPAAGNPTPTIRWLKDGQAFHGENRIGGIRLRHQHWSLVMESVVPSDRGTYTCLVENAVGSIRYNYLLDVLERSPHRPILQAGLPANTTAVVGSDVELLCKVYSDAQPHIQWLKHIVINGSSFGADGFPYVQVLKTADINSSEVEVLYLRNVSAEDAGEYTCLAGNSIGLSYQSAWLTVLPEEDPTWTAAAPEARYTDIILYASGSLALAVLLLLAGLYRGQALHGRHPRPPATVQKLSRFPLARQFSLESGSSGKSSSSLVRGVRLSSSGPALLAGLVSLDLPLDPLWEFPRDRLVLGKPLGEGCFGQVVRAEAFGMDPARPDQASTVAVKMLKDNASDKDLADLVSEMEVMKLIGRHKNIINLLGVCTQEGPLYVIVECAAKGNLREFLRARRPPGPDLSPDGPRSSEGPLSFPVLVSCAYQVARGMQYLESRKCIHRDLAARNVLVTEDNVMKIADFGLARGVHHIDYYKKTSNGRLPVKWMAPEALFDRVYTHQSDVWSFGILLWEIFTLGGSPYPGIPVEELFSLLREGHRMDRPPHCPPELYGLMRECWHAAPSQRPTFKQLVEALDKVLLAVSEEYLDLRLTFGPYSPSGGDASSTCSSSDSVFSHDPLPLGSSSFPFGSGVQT

Sequence of Fibroblast growth factor receptor 1 (P11362 whole entry): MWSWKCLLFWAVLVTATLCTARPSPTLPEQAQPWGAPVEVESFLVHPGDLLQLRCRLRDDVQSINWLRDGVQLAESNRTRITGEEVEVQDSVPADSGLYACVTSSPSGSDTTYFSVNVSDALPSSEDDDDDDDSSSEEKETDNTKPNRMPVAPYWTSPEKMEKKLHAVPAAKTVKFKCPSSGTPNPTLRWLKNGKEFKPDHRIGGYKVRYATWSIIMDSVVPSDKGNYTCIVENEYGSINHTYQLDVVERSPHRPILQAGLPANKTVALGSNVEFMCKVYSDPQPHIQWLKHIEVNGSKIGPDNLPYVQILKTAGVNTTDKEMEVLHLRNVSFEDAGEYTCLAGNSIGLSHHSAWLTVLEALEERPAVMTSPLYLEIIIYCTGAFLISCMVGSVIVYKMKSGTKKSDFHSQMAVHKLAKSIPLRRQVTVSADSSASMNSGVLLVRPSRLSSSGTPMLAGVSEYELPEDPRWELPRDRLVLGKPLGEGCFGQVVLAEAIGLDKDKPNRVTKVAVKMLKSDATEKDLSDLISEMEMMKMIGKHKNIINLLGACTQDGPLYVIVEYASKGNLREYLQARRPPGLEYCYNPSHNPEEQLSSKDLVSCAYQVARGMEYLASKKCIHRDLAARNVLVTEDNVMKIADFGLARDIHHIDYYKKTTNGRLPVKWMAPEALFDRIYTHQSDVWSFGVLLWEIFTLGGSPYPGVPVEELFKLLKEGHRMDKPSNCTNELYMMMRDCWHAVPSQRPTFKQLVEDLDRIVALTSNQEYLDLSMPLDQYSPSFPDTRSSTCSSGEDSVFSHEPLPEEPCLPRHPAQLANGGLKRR

SMILES	IC50 [1]	IC50 [2]
CO[C@@H]1CCCC1Nc1cc(NC(=O)N2CCCc3cc(CN4CCOCC4=O)c(C=O)nc32)ncc1C#N (stereo partly drawn)	> 10 µM	
COCCNc1cc(NC(=O)N2CCCc3cc(CN4CCCCOC4=O)c(C=O)nc32)ncc1C#N	> 10 µM	
COC[C@@H](C)Nc1cc(NC(=O)N2CCCc3cc(CN4CCCCOC4=O)c(C=O)nc32)ncc1C#N		0.00096 µM
